The text below walks through data of US20090318446A1, “4-(1H-Indol-3-yl)-Pyrimidin-2-Ylamine Derivatives and Their Use in Therapy” (Cyclacel Limited, priority 2005, published 2009).

Each structure is given as a SMILES string. Where two headings read alike, the source gives them in different places.

The target in one test is CDK7/cyclin H (Homo sapiens, UniProt P50613). Description: CDK 7 assay. The format is biochemical. The protocol: CTD peptide substrate (biotinyl-Ahx-(Tyr-Ser-Pro-Thr-Ser-Pro-Ser)4-NH2; 1-2 mg/mL) and recombinant human CDK7/cyclin H, CDK9/cyclin TI, or CDK9/cyclin K (0.5-2 μg) were incubated for 45 min at 30° C. in the presence of varying amounts of test compound in 20 mM MOPS pH 7.2, 25 mM β-glycerophosphate, 5 mM EGTA, 1 mM DTT, 1 mM sodium vanadate, 15 mM MgCl2, and 100 μM ATP (containing a trace amount of ^32PγATP) in a total volume of 25 μL in a 96-well microtiter plate. The reaction was stopped by placing the plate on ice for 2 min. Avidin (50 μg) was added to each well, and the plate was incubated at room temp for 30 min. The samples were transferred to a 96-well P81 filter plate, and washed (4×200 μL per well) with 75 mM phosphoric acid. Microscint 40 scintillation liquid (50 μL) was added to each well, and the amount of ^32P incorporation for each sample was measured using a Packard Topcount microplate scintillation counter.
Chain of CDK7/cyclin H (P50613 whole entry): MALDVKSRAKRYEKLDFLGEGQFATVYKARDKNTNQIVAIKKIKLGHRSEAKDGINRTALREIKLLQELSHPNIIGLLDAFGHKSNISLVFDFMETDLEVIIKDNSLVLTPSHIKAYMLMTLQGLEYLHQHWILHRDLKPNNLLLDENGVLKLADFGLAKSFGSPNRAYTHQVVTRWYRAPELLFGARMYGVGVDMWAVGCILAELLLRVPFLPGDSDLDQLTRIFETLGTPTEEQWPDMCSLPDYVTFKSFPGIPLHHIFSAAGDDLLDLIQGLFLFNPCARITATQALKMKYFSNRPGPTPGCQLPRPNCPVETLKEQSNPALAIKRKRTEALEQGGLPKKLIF
Chain of CDK7/cyclin H (P51946 whole entry partner): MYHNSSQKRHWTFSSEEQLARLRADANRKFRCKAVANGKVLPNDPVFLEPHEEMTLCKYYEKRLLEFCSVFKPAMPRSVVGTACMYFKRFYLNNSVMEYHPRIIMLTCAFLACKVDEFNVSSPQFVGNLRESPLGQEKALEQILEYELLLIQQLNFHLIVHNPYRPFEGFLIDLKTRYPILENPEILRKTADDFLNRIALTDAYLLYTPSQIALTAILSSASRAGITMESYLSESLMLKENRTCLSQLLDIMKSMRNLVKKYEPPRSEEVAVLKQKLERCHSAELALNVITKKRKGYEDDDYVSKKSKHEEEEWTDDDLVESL

The subject of a further test is Mia-PaCa-2. Briefly: MTT cytotoxicity assay, Mia-PaCa-2. Type of test: cell-based. Conditions: Homo sapiens, after incubation. As for the experimental part: (§1) The compounds of the invention were subjected to a standard cellular proliferation assay using human tumour cell lines obtained from the ATCC (American Type Culture Collection, 10801 University Boulevard, Manessas, Va. 20110-2209, USA). […] C.; Thomas, D. G.; Darling, J. L. Anti Cancer Drugs 1996, 7, 331-8; Loveland, B. E.; Johns, T. G.; Mackay, 1. R.; Vaillant, F.; Wang, Z. X.; Hertzog, P. J. Biochemistry International 1992, 27, 501-10). In short: cells were seeded into 96-well plates according to doubling time and incubated overnight at 37° C. […] MTT was made up as a stock of 5 mg/mL in cell media and filter-sterilised. Media was removed from cells followed by a wash with 200 μL PBS. MTT solution was then added at 20 μL per well and incubated in the dark at 37° C. for 4 h MTT solution was removed and cells again washed with 200 μL PBS. MTT dye was solubilised with 200 μL per well of DMSO with agitation. Absorbance was read at 540 nm and data analysed using curve-fitting software (GraphPad Prism version 3.00 for Windows, GrapbPad Software, San Diego Calif. USA) to determine IC50 values (concentration of test compound which inhibits cell growth by 50%).
Background: Formazan colour is commonly taken as a measure of viable cells.

For the next test, the target named is CDK4/cyclin D1 (Homo sapiens, UniProt P11802). Description: Kinase assay CDK4/cyclin D1. Type of test: biochemical. As for the experimental part: The compounds from the examples above were investigated for their ability to inhibit the enzymatic activity of various protein kinases. This was achieved by measurement of incorporation of radioactive phosphate from ATP into appropriate polypeptide substrates. Recombinant protein kinases and kinase complexes were produced or obtained commercially. Assays were performed using 96-well plates and appropriate assay buffers (typically 25 mM β-glycerophosphate, 20 mM MOPS, 5 mM EGTA, 1 mM DTT, 1 mM […], pH 7.4), into which were added 2-4 μg of active enzyme with appropriate substrates. The reactions were initiated by addition of Mg/ATP mix (15 mM MgCl2+100 μM ATP with 30-50 kBq per well of [γ-^32P]-ATP) and mixtures incubated as required at 30° C. Reactions were stopped on ice, followed by filtration through p81 filterplates or GF/C filterplates (Whatman Polyfiltronics, Kent, UK). After washing 3 times with 75 mM aq orthophosphoric acid, plates were dried, scintillant added and incorporated radioactivity measured in a scintillation counter (TopCount, Packard Instruments, Pangbourne, Berks, UK). Compounds for kinase assay were made up as 10 mM stocks in DMSO and diluted into 10% DMSO in assay buffer. Data was analysed using curve-fitting software (GraphPad Prism version 3.00 for Windows, GraphPad Software, San Diego Calif. USA) to determine IC50 values (concentration of test compound which inhibits kinase activity by 50%).
Chain of CDK4/cyclin D1 (P11802 whole entry, species assumed): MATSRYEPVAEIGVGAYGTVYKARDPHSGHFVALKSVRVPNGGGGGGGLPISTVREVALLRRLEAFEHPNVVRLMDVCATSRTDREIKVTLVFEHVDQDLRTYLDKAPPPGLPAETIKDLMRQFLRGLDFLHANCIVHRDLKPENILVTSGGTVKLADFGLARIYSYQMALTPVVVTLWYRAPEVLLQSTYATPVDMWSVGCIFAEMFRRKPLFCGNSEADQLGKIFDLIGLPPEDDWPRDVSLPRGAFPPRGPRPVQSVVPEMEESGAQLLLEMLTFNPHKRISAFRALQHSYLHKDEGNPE
Chain of CDK4/cyclin D1 (P24385 whole entry partner, species assumed): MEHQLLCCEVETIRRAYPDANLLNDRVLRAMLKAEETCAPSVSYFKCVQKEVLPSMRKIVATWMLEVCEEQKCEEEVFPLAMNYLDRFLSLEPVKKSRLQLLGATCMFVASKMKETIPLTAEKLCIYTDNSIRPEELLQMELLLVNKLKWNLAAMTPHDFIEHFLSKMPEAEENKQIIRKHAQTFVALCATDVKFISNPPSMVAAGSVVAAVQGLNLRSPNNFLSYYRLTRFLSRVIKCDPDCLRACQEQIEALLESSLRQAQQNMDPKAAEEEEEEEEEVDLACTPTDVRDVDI

A further test concerns the target T1, Flt-3 (Homo sapiens, UniProt P36888).
T1 construct: purchased Upstate, Dundee, UK
T1 sequence (P36888 564-993 limits assumed): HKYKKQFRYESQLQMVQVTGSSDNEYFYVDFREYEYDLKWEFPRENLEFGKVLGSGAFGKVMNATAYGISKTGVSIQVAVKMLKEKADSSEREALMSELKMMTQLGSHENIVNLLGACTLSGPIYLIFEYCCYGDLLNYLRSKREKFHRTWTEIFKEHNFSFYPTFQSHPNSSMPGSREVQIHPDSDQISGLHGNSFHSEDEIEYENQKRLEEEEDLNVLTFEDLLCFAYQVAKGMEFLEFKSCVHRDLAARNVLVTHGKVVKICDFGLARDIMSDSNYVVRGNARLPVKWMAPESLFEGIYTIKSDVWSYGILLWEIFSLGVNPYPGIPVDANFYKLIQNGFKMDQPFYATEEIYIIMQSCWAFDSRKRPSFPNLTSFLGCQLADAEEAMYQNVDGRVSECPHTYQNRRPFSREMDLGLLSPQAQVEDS
Description: Flt3 kinase assay. Type of test: biochemical. The protocol:
This was achieved by measurement of incorporation of radioactive phosphate from ATP into myelin basic protein (MBP) substrate, upon phosphorylation by commercially obtained Flt-3 Upstate, Dundee, UK). Assays were performed using 96-well plates and appropriate assay buffers (20 mM Tris, 25 mM β-glycerophosphate, 5 mM EGTA, 1 mM DTT, 1 mM sodium vanadate, pH 7.5), into which were added 5 ng of active enzyme with 0.4 mg/ml substrate (MBP). The reactions were initiated by addition of MgATP mix (15 mM MgCl2+100 μM ATP with 15-25 kBq per well of [γ-^32P]-ATP) and mixtures incubated for 30 min at 30° C. Reactions were stopped by addition of an equal volume of 75 mM aq orthophosphoric acid, followed by filtration through p81 filterplates (Whatman Polyfiltronics, Kent, UK). After washing 4 times with 75 mM aq orthophosphoric acid, plates were dried, scintillant added and incorporated radioactivity measured in a scintillation counter (TopCount, Packard Instruments, Pangbourne, Berks, UK). Compounds for kinase assay were made up as 10 mM stocks in DMSO and diluted into 10% DMSO in assay buffer. Data was analysed using curve-fitting software (XLfit version 4.0.2, IDBS, Guildford, Surrey, UK) to determine IC50 values (concentration of test compound which inhibits kinase activity by 50%).

For a further test, the system named is A2780. Briefly: MTT cytotoxicity assay, A2780. Particulars: Homo sapiens, after incubation. Type of test: cell-based. As for the experimental part: as §1
[1] abbreviates: Table 3, read-out: Kinase inhibition CDK7H.
Setting [2] is: Table 3, read-out: Kinase inhibition CDK4D1.
The mark [3] stands for this setting: Table 3, read-out: Kinase inhibition Flt3.
Setting [4] is: Table 2, read-out: Kinase inhibition IC50 CDK7H.
The mark [5] stands for this setting: Table 2, read-out: Kinase inhibition IC50 CDK4D1.
Where [6] appears, read: Table 2, read-out: Kinase inhibition IC50 FLT3.

Consider `c1ccc2c(-c3ccnc(Nc4ccc(N5CCNCC5)cc4)n3)c[nH]c2c1` [Compound 7, 4-(1H-indol-3-yl)-N-(4-piperazin-1-ylphenyl)pyrimidin-2-amine], for which the IC50 at CDK7/cyclin H (setting [1]) came out at 2.53 µM; with Mia-PaCa-2 it was 0.166 µM; on CDK4/cyclin D1 (setting [2]) it was 0.426 µM; on Flt-3 (setting [3]) it was 0.0127 µM; in the test on A2780, 0.086 µM.

Take `COc1ccc(Nc2nccc(-c3c[nH]c4ccccc34)n2)cn1` [Compound 4, [4-(1H-Indol-3-yl)-pyrimidin-2-yl]-(6-methoxy-pyridin-3-yl)-amine]: the IC50 on CDK7/cyclin H (setting [4]) came out at 5.4 µM; on CDK7/cyclin H (setting [1]), 5.44 µM; at CDK4/cyclin D1 (setting [5]), 1 µM; on CDK4/cyclin D1 (setting [2]), 1 µM; at Flt-3 (setting [6]), 0.15 µM; at Flt-3 (setting [3]), 0.148 µM.

For the compound `Fc1ccc(Nc2nccc(-c3c[nH]c4ccccc34)n2)cc1` [Compound 3, (4-Fluoro-phenyl)-[4-(1H-indol-3-yl)-pyrimidin-2-yl]-amine], the IC50 was over 100 µM at CDK7/cyclin H (setting [4]), over 100 µM at CDK4/cyclin D1 (setting [5]), 0.27 µM on Flt-3 (setting [6]) and 0.274 µM at Flt-3 (setting [3]).

Consider `CC(=O)N1CCN(c2ccc(Nc3nccc(-c4c[nH]c5c(C)cccc45)n3)cc2)CC1` [Compound 23], for which the IC50 was 3.47 µM on CDK7/cyclin H (setting [1]), 0.789 µM with Mia-PaCa-2, 0.0332 µM at Flt-3 (setting [3]) and 0.448 µM with A2780.

In the case of `O=[N+]([O-])c1cccc(Nc2nccc(-c3c[nH]c4ccccc34)n2)c1` [Compound 2, [4-(1H-Indol-3-yl)-pyrimidin-2-yl]-(3-nitro-phenyl)-amine], the IC50 on CDK7/cyclin H (setting [4]) is over 100 µM; on CDK4/cyclin D1 (setting [5]) it was over 100 µM; at Flt-3 (setting [6]), 0.13 µM; on Flt-3 (setting [3]), 0.133 µM.

Take `CC(=O)N1CCN(c2ccc(Nc3nccc(-c4c[nH]c5ccccc45)n3)cc2)CC1` [Compound 6, 4-(1H-indol-3-yl)-N-(4-acetylpiperazin-1-ylphenyl)pyrimidin-2-amine]: the IC50 was 0.785 µM in the test on Mia-PaCa-2, 4.39 µM at CDK4/cyclin D1 (setting [2]), 0.0133 µM at Flt-3 (setting [3]) and 0.789 µM in the test with A2780.

On to `CC1CN(c2ccc(Nc3nccc(-c4c[nH]c5ccccc45)n3)cc2)CC(C)O1` (stereo not shown) [Compound 9], for which the IC50 stood at 6.67 µM at CDK7/cyclin H (setting [1]); 6.23 µM with Mia-PaCa-2; 5.46 µM at CDK4/cyclin D1 (setting [2]); 0.0298 µM at Flt-3 (setting [3]); 5.45 µM in the test on A2780.

Consider `c1ccc2c(-c3ccnc(Nc4ccc(N5CCOCC5)cc4)n3)c[nH]c2c1` [Compound 5, [4-(1H-Indol-3-yl)-pyrimidin-2-yl]-(4-morpholin-4-yl-phenyl)-amine], for which the IC50 at CDK7/cyclin H (setting [4]) was over 10 µM; in the test on Mia-PaCa-2, 2.4 µM; on Flt-3 (setting [6]), 0.052 µM; on Flt-3 (setting [3]) it was 0.0516 µM; with A2780, 1.03 µM.

For the compound `CN(C)c1ccc(Nc2nccc(-c3c[nH]c4ccccc34)n2)cc1` [Compound 10, N′-[4-(1H-indol-3-yl)pyrimidin-2-yl]-N,N-dimethylbenzene-1,4-diamine], the IC50 at CDK7/cyclin H (setting [1]) stood at 5.23 µM; in the test on Mia-PaCa-2 it was 5.48 µM; on CDK4/cyclin D1 (setting [2]), 5.78 µM; on Flt-3 (setting [3]) it was 0.0849 µM; in the test with A2780, 0.485 µM.

Take `COc1cc(Nc2nccc(-c3c[nH]c4ccccc34)n2)cc(OC)c1OC` [Compound 12, 4-(1H-indol-3-yl)-N-(3,4,5-trimethoxyphenyl)pyrimidin-2-amine]: the IC50 in the test with Mia-PaCa-2 was 0.077 µM; at Flt-3 (setting [3]), 0.0013 µM; with A2780, 0.043 µM.

`COc1cc(Nc2nccc(-c3c[nH]c4ccccc34)n2)ccc1N1CCOCC1` [Compound 13, 4-(1H-indol-3-yl)-N-(3-methoxyl-4-morpholin-4-ylphenyl)pyrimidin-2-amine]: the IC50 was 6.73 µM with Mia-PaCa-2, 0.0024 µM at Flt-3 (setting [3]) and 2.48 µM in the test on A2780.

`CC(=O)N1CCN(c2ccc(Nc3nccc(-c4c(C)[nH]c5ccccc45)n3)cc2)CC1` [Compound 22]: the IC50 came out at 6.66 µM at CDK7/cyclin H (setting [1]), 0.778 µM in the test with Mia-PaCa-2, 0.011 µM on Flt-3 (setting [3]) and 0.299 µM with A2780.
